Read-outs that look alike come from different tables or passages of the source. Where no end group is shown, it is not given here. [ ]: non-standard residue; d: D form. The star is where a group is joined. Lys(Me2) = CN(C)CCCC[C@H](N)C(=O)O; Myristyl = CCCCCCCCCCCCCC*
How the values were obtained:
SARS-CoV-2 [1] = format: cell-based
SARS-CoV-2 [2] = format: cell-based; remark: listed apart in the source
[3] = biological target: ACE2 and SARS-CoV-2 Spike (Severe acute respiratory syndrome coronavirus 2, UniProt P0DTC2); format: cell-based
SARS-CoV-2 spike protein [4] = biological target: T1, SARS-CoV-2 spike protein (Severe acute respiratory syndrome coronavirus 2, UniProt P0DTC2); format: cell-based
T1 construct: spike protein 51 (Glu14-Ser680) containing a poly-histidine tag at the C-terminus; poly-histidine (C)

LSD1 [5] = biological target: T2, LSD1 (Homo sapiens, UniProt O60341); test: In vitro LSD1 activity assay (demethylation of ACE2 peptide at lysine 31); format: biochemical
ACE2, LSD1 = format: cell-based; details: Caco-2 cells
[6] = system: ACE2, SARS-CoV-2 nucleocapsid and Spike proteins; format: cell-based
ACE2-importin complex = format: binding
ACE2unmod and IMPα1 = biological target: T3, ACE2unmod and IMPα1 (Homo sapiens, UniProt P52292); format: cell-based; set-up: dose or concentration left out as unconfirmed; details: H1299 cells
T3 construct: endogenous in cells; host or cells: H1299

SARS-CoV-2 [7] = system: SARS-CoV-2; set-up: species or system golden Syrian Hamsters; details: hamster, in vivo
SARS-CoV-2 [8] = system: SARS-CoV-2; set-up: species or system golden Syrian Hamsters; details: hamster, in vivo; remark: listed apart in the source
SARS-CoV-2 Spike protein [9] = system: SARS-CoV-2 Spike protein; set-up: species or system golden Syrian Hamsters; details: hamster, in vivo
[10] = system: SARS-Cov-2 induced lung pathology; set-up: species or system golden Syrian Hamsters; details: hamster, in vivo
perforin and CD3 = format: in vivo, golden Syrian Hamsters; details: hamster, IP or IV routes
[11] = Hamster tolerance (animal safety) study; format: in vivo, golden Syrian Hamsters; details: escalating IP doses
Description: Female golden Syrian Hamsters (6-8 weeks) were obtained from Janiver Labs (Le Genest-Saint-Isle, France) and studies conducted by Oncodesign® Biotechnology (Dijon Cedex, France). For tolerance experiments, animals (3 per group) received escalating doses of P604 ACE2 peptide inhibitor or ACE2i peptide via intraperitoneal injection. Doses were escalated daily (day 1: 25 mg/kg, day 2: 50 mg/kg, day 3: 100 mg/kg) and animals monitored prior to culling on day 4. Animal viability, behaviour and rectal temperature were recorded every 2 hours over a 6 hour period post-administration and body weights were measured daily. For P604 ACE2 peptide inhibitor efficacy studies, animals (8 per group) were treated with vehicle (IP, daily day 0, 1 and 2) (Sodium chloride 0.9%, Osalia, Paris, France) or P604 ACE2 peptide inhibitor over a 2-day period via intravenous (IV, 15 mg/kg, day 0 once and day 1 twice, 8 hours apart) or intraperitoneal (IP, 100 mg/kg, daily Day 0, 1, 2) injection. For P604 ACE2 peptide inhibitor efficacy studies, animals were treated with vehicle or P604 ACE2 peptide inhibitor (30 mg/kg, IN, twice daily, Day 0, 1 8 hours apart).

LSD1 [12] = biological target: T2, LSD1

STIEEQAKTFLDK [ACE2-02]
decrease of viral RNA in infected cells (SARS-CoV-2 [1]): 2 fold
reduction of infection (qRT-PCR) in cell culture supernatants (SARS-CoV-2 [1]): 4.6 fold
reduction in viral load (infectious viral titers, TCID50) (SARS-CoV-2 [2]): 3.2 fold
interaction between ACE2 and spike protein (ACE2/spike complexes at the cell surface) [3]: further disrupted
inhibition of Spike protein binding to the cell surface (SARS-CoV-2 spike protein [4]): significantly inhibit

QAKTFLD{Lys(Me2)}FNHEAED (QAKTFLD[Lys(Me2)]FNHEAED) [ACE2me2]
de-methylation at lysine 31 by LSD1 (LSD1 [5]): efficiently de-methylated

Myristyl-TGIRDRKKKNKARS-OH (SMILES CCCCCCCCCCCCCCN[C@H](C(=O)NCC(=O)N[C@H](C(=O)N[C@@H](CCCNC(=N)N)C(=O)N[C@@H](CC(=O)O)C(=O)N[C@@H](CCCNC(=N)N)C(=O)N[C@@H](CCCCN)C(=O)N[C@@H](CCCCN)C(=O)N[C@@H](CCCCN)C(=O)N[C@@H](CC(N)=O)C(=O)N[C@@H](CCCCN)C(=O)N[C@@H](C)C(=O)N[C@@H](CCCNC(=N)N)C(=O)N[C@@H](CO)C(=O)O)[C@@H](C)CC)[C@@H](C)O) [P604]
PCC(r) of LSD1 and ACE2 (co-localisation) (ACE2, LSD1): significantly abrogated
ACE2 expression on the cell surface (ACE2, LSD1; 25 mM/50 mM): de-stabilizes ACE2 expression on the cell surface
cell surface LSD1 expression (ACE2, LSD1; 25 mM/50 mM): reducing cell surface LSD1 expression
expression of Spike protein of SARS-CoV-2 [6]: significantly inhibit and downregulate
expression of host ACE2 [6]: significantly inhibit and downregulate
expression of nucleocapsid protein of SARS-CoV-2 [6]: significantly inhibit and downregulate
inhibition of the ACE2-importin complex in vitro (ACE2-importin complex): directly inhibiting the ACE2-importin complex
ACE2unmod-IMP1 interaction (DUOLINK) (ACE2unmod and IMPα1): significantly all but abrogated
viral RNA in the lungs (SARS-CoV-2 [7]): Significant reductions
decrease in viral load normalized to the vehicle group (SARS-CoV-2 [7]; ip, 100 mg/kg): 96%
decrease in viral load normalized to the vehicle group (SARS-CoV-2 [7]; iv, 15 mg/kg): 88%
lung infectious titers (TCID50 assay) (SARS-CoV-2 [8]): reduced
overall intensity of Spike protein signal in positive cells (SARS-CoV-2 Spike protein [9]): significantly reduced
population of cells in bronchial lung sections positive for SARS-CoV-2 spike protein (SARS-CoV-2 Spike protein [9]): significantly reduced
changes in the bronchioles or vessels (H&E) [10]: minimal changes
mean cumulative histopathological scores [10]: substantially lower than the vehicle group
CD3+ cells expressing perforin in lung (perforin and CD3): induce more CD3+ cells to express perforin
cells positive for perforin in lung (perforin and CD3): significantly induce higher cells positive for perforin
toxicity in animal safety studies [11]: minimal toxicity

NNCCc1ccccc1 [phenelzine]
effect on ACE2 transcription (LSD1 [12]): minimal effect
expression and co-localization of LSD1 with ACE2 and TMRPSS2 (LSD1 [12]): abrogated
